# Values joined by “and” are separate entries in the source; they are usually repeats but may differ in a detail not shown here. Equal entries are not always repeated. Where no end group is shown, it is not given here. Side-chain parts run from the residue outwards. rhodamine‑labelled PEGylated perfluoro‑15‑crown‑5 ether nanoemulsion = not defined here; carboxyfluorescein = N-terminal fluorescence label (CF)
# System: murine neutrophils
# Assay: Cell surface activation markers CD11b, CD62L, CD63 on murine blood neutrophils
# Assay type: in vivo, mouse
# Settings: mNPPFCs 1 mM per kg BW i.v., blood 2 h later; LPS = LPS-doped Matrigel s.c. 24 h before (positive control); individual experiments, only first lines of sheet shown
# Experimental: […] per kg BW ^mNPPFCs or saline were injected i.v., and, 2 h later, neutrophils were isolated from the blood and stained for CD11b, CD62L and CD63. As a positive control, mice were implanted with LPS-doped Matrigel 24 h before blood withdrawal.
# A total of 1 × 10^6 isolated human neutrophils were incubated with 50 µl ml^−1 ^hNPPFCs, 1 µg ml^−1 LPS or only DMEM for 1 h at 37 °C followed by intense washing with MACS buffer. Afterward, 1 × 10^5 cells were transferred into 96-well plates and stained for CD11b and CD63 (eBioscience, clone HSC6) or CD66b (eBioscience, clone G10F5) for 20 min at 4 °C. After two washing steps with MACS buffer, cells were analyzed by flow cytometry. A total of 1 × 10^5 isolated murine neutrophils were transferred into a 96-well plate and stained for CD11b, CD62L and CD63 for 20 min at 4 °C. After two washing steps with MACS buffer, cells were analyzed by flow cytometry.
# Extended Data Fig. 9 Impact of ^mNPPFCs on murine neutrophils. a, Differentially expressed genes (DEGs) identified by bulk RNA sequencing of murine blood neutrophils after intravenous injection of ^mNPPFCs, ^ConPFCs or NaCl (Ctrl) as control. […] In total 25655 RNA transcripts were analyzed. b, Cell surface expression of CD11b, CD62L, CD63 on blood derived murine neutrophils after intravenous application of NaCl (Ctrl) or ^mNPPFCs. As a positive control, matrigel doped with 50 µg LPS was subcutaneously implanted into the neck of mice and after 24 h, neutrophils were isolated from the blood and analyzed by flow cytometry. c, Impact of ^mNPPFC incubation on neutrophil migration, phagocytosis and release of reactive oxygen species (ROS). Migration was determined in vivo by assessment of the infiltration of neutrophils into a matrigel/LPS plug; phagocytosis was determined by intravenous injection of FITC-labelled E.coli into mice and the subsequent removal and flow cytometric analysis of blood neutrophils; extracellular ROS were measured within the cell supernatant of blood neutrophils by oxidation of DHE (dihydroethidium) followed by UPLC analysis. […]
substance,measurement,value
mNPPFCs: PEGylated rhodamine-labeled perfluoro-15-crown-5 ether nanoemulsion (maleimide PFCs) coupled with murine neutrophil-specific peptide mNP (carboxyfluorescein-DFYKPMPNLRITGGGC([maleimide‑PEG2000‑DSPE-rhodamine‑labelled PEGylated perfluoro‑15‑crown‑5 ether nanoemulsion]); reading uncertain; also: printed as DFYKPMPNLRIT-GGG-C),"cell surface expression of CD11b on blood derived murine neutrophils, flow cytometry",2655 and 2691 and 3361 and 1842
same,"cell surface expression of CD62L on blood derived murine neutrophils, flow cytometry",1971 and 1966 and 1558 and 2425
same,"cell surface expression of CD63 on blood derived murine neutrophils, flow cytometry",135 and 126 and 105

# — article PMC11357992, “Non-invasive mapping of systemic neutrophil dynamics upon cardiovascular injury” (Nature Cardiovascular Research, 2023)
